Reference: the NIST ThermoML archive (doi:10.1016/j.jct.2008.01.012)
Numbers after ± are expanded uncertainties.

What was measured:
[1] = excess molar enthalpy (molar enthalpy of mixing); xn = mol fraction of the nth substance listed; conditions: 303.15 K, 101 kPa, Liquid, Calvet calorimetry
[2] = Liquid, Diaphragm manometer

CCN(CC)CCCN [N,N-diethylpropane-1,3-diamine] + CCCCCCC
[1]
Conditions | excess molar enthalpy [kcal/mol]
x1 = 0.0503 | 0.0645 ± 0.00263
x1 = 0.1038 | 0.121 ± 0.00502
x1 = 0.1491 | 0.16 ± 0.00645
x1 = 0.2452 | 0.217 ± 0.00884
x1 = 0.3961 | 0.255 ± 0.0103
x1 = 0.4516 | 0.258 ± 0.0105
x1 = 0.5013 | 0.255 ± 0.0105
x1 = 0.5973 | 0.235 ± 0.00956
x1 = 0.7014 | 0.199 ± 0.00813
x1 = 0.7987 | 0.149 ± 0.00598
x1 = 0.8974 | 0.0834 ± 0.00335

CCCCCCC [heptane]
[2]
Conditions | vapor or sublimation pressure [kPa]
303.15 K | 7.786 ± 0.34
313.15 K | 12.32 ± 0.54
323.15 K | 18.85 ± 0.82
333.15 K | 27.98 ± 1.2
343.15 K | 40.43 ± 1.8

CCN(CC)CCCN [N,N-diethylpropane-1,3-diamine] + CCCCCCCCCCCC
[1]
Conditions | excess molar enthalpy [kcal/mol]
x1 = 0.0601 | 0.0915 ± 0.00382
x1 = 0.1207 | 0.161 ± 0.00645
x1 = 0.2122 | 0.242 ± 0.0098
x1 = 0.3099 | 0.298 ± 0.0122
x1 = 0.4093 | 0.325 ± 0.0131
x1 = 0.4522 | 0.328 ± 0.0134
x1 = 0.5054 | 0.327 ± 0.0134
x1 = 0.6037 | 0.312 ± 0.0127
x1 = 0.71 | 0.267 ± 0.011
x1 = 0.8047 | 0.207 ± 0.00837
x1 = 0.9021 | 0.119 ± 0.00478
x1 = 0.9498 | 0.0648 ± 0.00263

CCN(CC)CCCN [N,N-diethylpropane-1,3-diamine]
[2]
Conditions | vapor or sublimation pressure [kPa]
303.15 K | 0.31 ± 0.014
313.15 K | 0.586 ± 0.026
323.15 K | 1.053 ± 0.046
333.15 K | 1.809 ± 0.079
343.15 K | 2.987 ± 0.13

CCN(CC)CCCN [N,N-diethylpropane-1,3-diamine] + CCCCCC
[1]
Conditions | excess molar enthalpy [kcal/mol]
x1 = 0.0798 | 0.107 ± 0.0043
x1 = 0.1311 | 0.152 ± 0.00621
x1 = 0.212 | 0.202 ± 0.00813
x1 = 0.2521 | 0.215 ± 0.00884
x1 = 0.3083 | 0.232 ± 0.00956
x1 = 0.3089 | 0.232 ± 0.00956
x1 = 0.3472 | 0.239 ± 0.0098
x1 = 0.3858 | 0.24 ± 0.0098
x1 = 0.4188 | 0.241 ± 0.0098
x1 = 0.4682 | 0.241 ± 0.0098
x1 = 0.4835 | 0.241 ± 0.0098
x1 = 0.5079 | 0.239 ± 0.0098
x1 = 0.5984 | 0.229 ± 0.00932
x1 = 0.7107 | 0.194 ± 0.00789
x1 = 0.802 | 0.146 ± 0.00598
x1 = 0.8762 | 0.0978 ± 0.00406
